Assays:
NET = NET (Homo sapiens, UniProt P23975); assay: Stereoselective uptake into NET-overexpressing HEK293 cells; conditions: for Vmax ± SEM / Km: HEK293 cells overexpressing human NET, racemic substrate, two minutes; for Vmax ± SEM: net uptake; for Clint ± SEM / Stereoselectivity Km / Stereoselectivity ClInt / Stereoselectivity Vmax: NET; for Clint ± SEM: quotient of vmax over Km; for Stereoselectivity Km / Stereoselectivity ClInt / Stereoselectivity Vmax: ratio between enantiomers; for Stereoselectivity Km: given as for (R) or for 1 (first-eluting); for Stereoselectivity ClInt / Stereoselectivity Vmax: given as for (S) or for 2; for Km: read-out: Km ± SEM, net uptake minus empty vector control
Chain of NET (P23975 whole entry): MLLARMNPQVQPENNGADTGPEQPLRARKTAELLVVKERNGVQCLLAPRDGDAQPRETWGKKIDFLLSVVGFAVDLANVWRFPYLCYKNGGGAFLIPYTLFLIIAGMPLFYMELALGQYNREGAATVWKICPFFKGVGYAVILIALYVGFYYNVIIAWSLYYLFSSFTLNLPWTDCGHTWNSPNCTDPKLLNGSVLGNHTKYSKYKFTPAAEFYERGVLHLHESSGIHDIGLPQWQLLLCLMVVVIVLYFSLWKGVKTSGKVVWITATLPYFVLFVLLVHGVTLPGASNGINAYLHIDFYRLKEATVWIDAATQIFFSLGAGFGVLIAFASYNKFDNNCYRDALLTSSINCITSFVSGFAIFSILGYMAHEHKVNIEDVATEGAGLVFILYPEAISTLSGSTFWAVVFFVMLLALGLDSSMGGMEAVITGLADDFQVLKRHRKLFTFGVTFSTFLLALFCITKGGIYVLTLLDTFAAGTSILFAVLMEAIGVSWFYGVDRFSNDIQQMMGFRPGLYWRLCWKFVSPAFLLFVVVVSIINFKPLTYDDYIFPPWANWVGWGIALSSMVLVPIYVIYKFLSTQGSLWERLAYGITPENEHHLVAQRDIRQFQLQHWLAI

DAT = DAT (Homo sapiens, UniProt Q01959); assay: Stereoselective uptake into DAT-overexpressing HEK293 cells; conditions: for Clint ± SEM / Stereoselectivity Vmax / Stereoselectivity Km / Stereoselectivity ClInt: DAT; for Clint ± SEM: quotient of vmax over Km; for Stereoselectivity Vmax / Stereoselectivity Km / Stereoselectivity ClInt: ratio between enantiomers; for Stereoselectivity Vmax: given as for (S) or for 2; for Stereoselectivity Km: given as for (S) or for 2 (second-eluting); for Stereoselectivity ClInt: printed as for (R) or for 1 (also 1.00-fold for (R/S)); for Vmax ± SEM / Km: HEK293 cells overexpressing human DAT, racemic substrate, two minutes; for Vmax ± SEM: net uptake; for Km: read-out: Km ± SEM, net uptake minus empty vector control
Chain of DAT (Q01959 whole entry): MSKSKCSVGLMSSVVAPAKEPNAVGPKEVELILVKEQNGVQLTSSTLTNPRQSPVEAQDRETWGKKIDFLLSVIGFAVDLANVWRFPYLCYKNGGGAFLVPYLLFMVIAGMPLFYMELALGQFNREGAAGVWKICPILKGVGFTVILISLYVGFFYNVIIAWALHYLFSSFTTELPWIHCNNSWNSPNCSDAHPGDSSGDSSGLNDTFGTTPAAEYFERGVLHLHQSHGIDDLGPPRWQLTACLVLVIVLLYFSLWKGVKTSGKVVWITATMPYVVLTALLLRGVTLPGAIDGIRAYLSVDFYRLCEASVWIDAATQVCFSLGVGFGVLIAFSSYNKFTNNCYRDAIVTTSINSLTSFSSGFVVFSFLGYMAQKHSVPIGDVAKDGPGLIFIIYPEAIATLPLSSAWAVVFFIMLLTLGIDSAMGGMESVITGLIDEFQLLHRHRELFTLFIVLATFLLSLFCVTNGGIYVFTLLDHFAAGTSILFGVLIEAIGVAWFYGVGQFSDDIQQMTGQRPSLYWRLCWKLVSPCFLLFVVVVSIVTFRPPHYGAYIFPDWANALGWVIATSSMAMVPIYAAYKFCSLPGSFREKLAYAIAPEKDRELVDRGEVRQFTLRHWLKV
Protocol: All transport experiments were carried out in HEK293 cells stably overexpressing human MATs or OCTs. […] All cells were regularly cultivated in DMEM supplemented with 10% (v/v) FCS, penicillin (100 U/mL) and streptomycin (100 μg/mL)and kept in culture for no longer than 30 passages.
For the uptake experiments, 300,000 cells were plated in poly-D-lysine precoated 24-well plates 48 h ahead of the transport experiment. On the day of experiment, cells were initially washed once with 37 °C pre-warmed HBSS+ (Hanks buffered salt solution supplemented with 10 mM HEPES) and subsequently incubated with the substrates dissolved in pre-warmed HBSS+ for exactly two minutes. Incubation was stopped by adding ice-cold HBSS+ followed by two washing steps. After this, cells were lysed with 80% acetonitrile containing 10 ng/mL milnacipran as internal standard for high-performance liquid chromatography coupled to tandem mass spectrometry (HPLC-MS/MS) analysis. For every experiment, two additional wells per cell line were lysed using RIPA buffer for protein quantification. Total protein was quantified using the bicinchoninic acid assay [42]. This was later used for normalization of the uptake data.
Intracellularly accumulated test substances were quantified by HPLC-MS/MS analysis using a Shimadzu Nexera HPLC system with a SIL-30AC autosampler, a CTO-20AC column oven, a LC-30AD pump, and a CBM-20A controller (Shimadzu, Kyoto, Japan). Stereoselective chromatography was carried out on a [sequence] CBH HPLC column (100 × 3 mm inner dimension with 5 μM particle size; Sigma-Aldrich, Darmstadt, Germany) with a corresponding 10 × 3 mm guard column. Reversed phased chromatography was carried out using an ammonium acetate (NH4Ac) buffered aqueous mobile phase with isopropyl alcohol (IPA) as organic solvent. […] The order of elution of the enantiomers was obtained from available reference literature [43] or by applying enantiopure reference compounds to the chiral HPLC. […] Given the structural similarity of the investigated substances and the fact that separation was performed on the same column with almost identical mobile phases, we assume that this order of elution for our compound set is always the (R)- before the (S)-enantiomer.
Detection was performed with an API 4000 tandem mass spectrometer (AB SCIEX, Darmstadt, Germany) operating in multiple-reaction-monitoring mode. Quantification was performed using the Analyst 1.6.2 software (AB SCIEX, Darmstadt, Germany) and quantified by comparison to standard curves with known concentrations.
All uptake data were normalized to protein content to account for variation in the number of seeded sells. Transporter-mediated net uptake was calculated by subtracting uptake into empty vector-transfected control cells from uptake into transporter-transfected cells. Kinetic parameters were then determined after non-linear regression following the Michaelis–Menten equation (v = vmax × [S]/(Km + [S])) using GraphPad Prism (Version 5.01 for Windows, GraphPad Software, La Jolla, CA, USA). Vmax refers to the maximum transport velocity and Km is defined as the substance concentration required to reach half of vmax. The intrinsic clearance Clint was calculated as the quotient of vmax over Km.

SERT = SERT (Homo sapiens, UniProt P31645); assay: Stereoselective uptake into SERT-overexpressing HEK293 cells; conditions: SERT; result in words
Chain of SERT (P31645 whole entry): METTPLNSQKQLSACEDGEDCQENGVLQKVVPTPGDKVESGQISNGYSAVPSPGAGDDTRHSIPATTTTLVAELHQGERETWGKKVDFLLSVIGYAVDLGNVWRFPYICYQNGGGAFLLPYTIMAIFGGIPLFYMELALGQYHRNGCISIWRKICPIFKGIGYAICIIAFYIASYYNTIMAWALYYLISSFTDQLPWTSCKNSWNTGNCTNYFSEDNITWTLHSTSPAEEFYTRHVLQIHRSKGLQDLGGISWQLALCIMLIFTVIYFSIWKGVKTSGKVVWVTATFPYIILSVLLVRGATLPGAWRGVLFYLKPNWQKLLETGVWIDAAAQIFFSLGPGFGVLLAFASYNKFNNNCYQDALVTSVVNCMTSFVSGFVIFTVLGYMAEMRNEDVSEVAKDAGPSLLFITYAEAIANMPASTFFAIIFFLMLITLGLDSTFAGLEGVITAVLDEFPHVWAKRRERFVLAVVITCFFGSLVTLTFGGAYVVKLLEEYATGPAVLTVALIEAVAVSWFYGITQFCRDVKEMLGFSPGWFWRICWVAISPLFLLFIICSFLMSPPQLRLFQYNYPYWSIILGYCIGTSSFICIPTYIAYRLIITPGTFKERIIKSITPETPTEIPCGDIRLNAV

OCT1 = target: T1, OCT1 (Homo sapiens, UniProt O15245); assay: Stereoselective uptake into OCT1-overexpressing HEK293 cells; conditions: for Vmax ± SEM / Km: HEK293 cells overexpressing human OCT1, racemic substrate, two minutes; for Vmax ± SEM: net uptake; for Clint ± SEM / Stereoselectivity Vmax / Stereoselectivity ClInt / Stereoselectivity Km: OCT1; for Clint ± SEM: quotient of vmax over Km; for Stereoselectivity Vmax / Stereoselectivity ClInt / Stereoselectivity Km: ratio between enantiomers; for Stereoselectivity Vmax: given as for (R) or for 1; for Stereoselectivity ClInt: given as for (R) or for 1 (also 1.00-fold for 1/2); for Stereoselectivity Km: given as for (R) or for 1 (first-eluting); for Km: read-out: Km ± SEM, net uptake minus empty vector control
T1 sequence (O15245 1-554): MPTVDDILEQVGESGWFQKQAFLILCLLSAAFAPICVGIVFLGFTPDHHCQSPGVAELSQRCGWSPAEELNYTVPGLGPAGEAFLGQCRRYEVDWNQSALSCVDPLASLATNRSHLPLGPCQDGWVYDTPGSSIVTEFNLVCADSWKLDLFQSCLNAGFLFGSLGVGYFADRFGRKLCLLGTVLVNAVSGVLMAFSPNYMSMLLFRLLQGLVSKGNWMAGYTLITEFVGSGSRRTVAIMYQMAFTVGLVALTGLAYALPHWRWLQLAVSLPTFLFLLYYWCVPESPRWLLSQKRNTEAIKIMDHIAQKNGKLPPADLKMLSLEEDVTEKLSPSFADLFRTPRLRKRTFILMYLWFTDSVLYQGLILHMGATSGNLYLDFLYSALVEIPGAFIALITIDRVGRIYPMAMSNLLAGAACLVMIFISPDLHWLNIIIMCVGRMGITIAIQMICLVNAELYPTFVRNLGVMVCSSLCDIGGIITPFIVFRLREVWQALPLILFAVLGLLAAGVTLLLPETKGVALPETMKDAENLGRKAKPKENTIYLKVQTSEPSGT

OCT3 = target: T2, OCT3 (Homo sapiens, UniProt O75751); assay: Stereoselective uptake into OCT3-overexpressing HEK293 cells; conditions: for Vmax ± SEM / Km: HEK293 cells overexpressing human OCT3, racemic substrate, two minutes; for Vmax ± SEM: net uptake; for Clint ± SEM / Stereoselectivity Vmax / Stereoselectivity ClInt / Stereoselectivity Km: OCT3; for Clint ± SEM: quotient of vmax over Km; for Stereoselectivity Vmax / Stereoselectivity ClInt / Stereoselectivity Km: ratio between enantiomers; for Stereoselectivity Vmax: given as for (R) or for 1; for Stereoselectivity ClInt: given as for (R) or for 1 (also 1.00-fold for 1/2); for Stereoselectivity Km: given as for (R) or for 1 (first-eluting); for Km: read-out: Km ± SEM, net uptake minus empty vector control
T2 sequence (O75751 1-556): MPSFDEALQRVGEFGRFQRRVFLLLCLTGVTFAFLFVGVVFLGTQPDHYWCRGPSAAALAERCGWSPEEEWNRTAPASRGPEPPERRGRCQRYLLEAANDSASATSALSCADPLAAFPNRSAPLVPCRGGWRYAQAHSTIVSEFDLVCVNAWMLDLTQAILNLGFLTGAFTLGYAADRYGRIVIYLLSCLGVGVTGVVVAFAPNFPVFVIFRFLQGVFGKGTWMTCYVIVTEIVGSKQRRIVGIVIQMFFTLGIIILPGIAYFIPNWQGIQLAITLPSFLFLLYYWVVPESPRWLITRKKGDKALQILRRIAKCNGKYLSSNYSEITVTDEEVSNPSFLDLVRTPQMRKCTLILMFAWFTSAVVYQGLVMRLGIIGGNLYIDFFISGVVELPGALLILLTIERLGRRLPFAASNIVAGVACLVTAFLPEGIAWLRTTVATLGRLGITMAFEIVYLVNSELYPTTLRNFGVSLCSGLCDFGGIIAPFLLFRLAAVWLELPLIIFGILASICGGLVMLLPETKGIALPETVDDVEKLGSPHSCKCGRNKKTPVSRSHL

OCT2 = target: T3, OCT2 (Homo sapiens, UniProt O15244); assay: Stereoselective uptake into OCT2 (wild-type)-overexpressing HEK293 cells; conditions: for Vmax ± SEM: HEK293 cells overexpressing human OCT2, racemic substrate, two minutes, net uptake; for Clint ± SEM: OCT2, quotient of vmax over Km
T3 sequence (O15244 1-555 S270A): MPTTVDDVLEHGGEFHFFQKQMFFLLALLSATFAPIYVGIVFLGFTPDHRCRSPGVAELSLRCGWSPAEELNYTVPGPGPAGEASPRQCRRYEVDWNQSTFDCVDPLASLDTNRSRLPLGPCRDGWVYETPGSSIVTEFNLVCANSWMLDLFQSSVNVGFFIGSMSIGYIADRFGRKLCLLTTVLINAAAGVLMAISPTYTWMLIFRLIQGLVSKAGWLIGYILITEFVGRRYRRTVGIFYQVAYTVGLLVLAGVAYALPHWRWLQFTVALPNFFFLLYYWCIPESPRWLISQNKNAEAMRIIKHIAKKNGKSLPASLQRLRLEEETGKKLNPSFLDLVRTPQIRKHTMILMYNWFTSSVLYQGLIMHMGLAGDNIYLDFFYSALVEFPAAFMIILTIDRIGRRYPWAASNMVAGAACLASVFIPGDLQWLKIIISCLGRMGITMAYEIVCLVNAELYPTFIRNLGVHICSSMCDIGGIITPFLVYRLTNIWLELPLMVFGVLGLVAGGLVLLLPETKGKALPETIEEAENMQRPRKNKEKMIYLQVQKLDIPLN

OCT2 A270S variant = assay: Stereoselective uptake into OCT2 A270S variant-overexpressing HEK293 cells; conditions: OCT2 wild-type versus A270S, 100 μM racemic substance, two minutes; given as for WT

| Structure (SMILES) | Vmax ± SEM (NET) | Clint ± SEM (NET) | Stereoselectivity Km (NET) [fold] | Stereoselectivity ClInt (NET) [fold] | Stereoselectivity Vmax (NET) [fold] | Km (NET) [µM] | Clint ± SEM (DAT) | Stereoselectivity Vmax (DAT) [fold] | Stereoselectivity Km (DAT) [fold] | Stereoselectivity ClInt (DAT) [fold] | Vmax ± SEM (DAT) | Km (DAT) [µM] | Saturable net uptake (SERT) | Vmax ± SEM (OCT1) | Clint ± SEM (OCT1) | Stereoselectivity Vmax (OCT1) [fold] | Stereoselectivity ClInt (OCT1) [fold] | Stereoselectivity Km (OCT1) [fold] | Km (OCT1) [µM] | Vmax ± SEM (OCT3) | further results |
| --- | --- | --- | --- | --- | --- | --- | --- | --- | --- | --- | --- | --- | --- | --- | --- | --- | --- | --- | --- | --- | --- |
| NC[C@@H](O)c1ccccc1 [(S)-Bisnorephedrine] | 11.7 pmol × mg Protein^−1 × min^−1 | 57.4 mL × g Protein^−1 × min^−1 | 1.01 | 1.24 | 1.23 | 0.204 | 6.15 mL × g Protein^−1 × min^−1 | 1.17 | 1.18 | 1.01 | 31.7 pmol × mg Protein^−1 × min^−1 | 5.16 | No saturable net uptake | 184 pmol × mg Protein^−1 × min^−1 | 1.13 mL × g Protein^−1 × min^−1 | 1.19 | 1.03 | 1.15 | 162 | 589 pmol × mg Protein^−1 × min^−1 | Clint ± SEM (OCT3): 3.85 mL × g Protein^−1 × min^−1; Stereoselectivity Vmax (OCT3): 1.13 fold; Stereoselectivity ClInt (OCT3): 1.04 fold; Stereoselectivity Km (OCT3): 1.08 fold; Km (OCT3): 153 µM; Vmax ± SEM (OCT2): 602 pmol × mg Protein^−1 × min^−1; Clint ± SEM (OCT2): 10.0 mL × g Protein^−1 × min^−1; Transporter selectivity (OCT2 A270S variant): 1.24 fold |
| NC[C@H](O)c1ccccc1 [(R)-Bisnorephedrine] | 9.50 pmol × mg Protein^−1 × min^−1 | 46.1 mL × g Protein^−1 × min^−1 | 1.01 | 1.24 | 1.23 | 0.206 | 6.21 mL × g Protein^−1 × min^−1 | 1.17 | 1.18 | 1.01 | 27.2 pmol × mg Protein^−1 × min^−1 | 4.38 | No saturable net uptake | 218 pmol × mg Protein^−1 × min^−1 | 1.17 mL × g Protein^−1 × min^−1 | 1.19 | 1.03 | 1.15 | 187 | 662 pmol × mg Protein^−1 × min^−1 | Clint ± SEM (OCT3): 4.00 mL × g Protein^−1 × min^−1; Stereoselectivity Vmax (OCT3): 1.13 fold; Stereoselectivity ClInt (OCT3): 1.04 fold; Stereoselectivity Km (OCT3): 1.08 fold; Km (OCT3): 165 µM; Vmax ± SEM (OCT2): 847 pmol × mg Protein^−1 × min^−1; Clint ± SEM (OCT2): 22.6 mL × g Protein^−1 × min^−1; Transporter selectivity (OCT2 A270S variant): 1.50 fold |

From article PMC9599461, “Stereoselectivity in the Membrane Transport of Phenylethylamine Derivatives by Human Monoamine Transporters and Organic Cation Transporters 1, 2, and 3” (Biomolecules, 2022)
